Legend:
[1] = system: T. cruzi trypomastigotes, Dm28 strain; assay: Resazurin viability assay on free T. cruzi trypomastigotes; conditions: Trypanosoma cruzi, 24 h, read-out: Viability T. cruzi (%)
Description: The reduction of resazurin sodium salt was used to determine the trypanocidal and toxoplasmicidal activity of the 6-nitrocoumarin-thiosemicarbazone hybrids 1–8. For this, treatment with the compounds was carried out for 24 h at a concentration of 100 µM.
NFX was used as a positive control for T. cruzi, and PMN was used for T. gondii. Untreated parasites served as a negative control. […] Subsequently, parasites with their respective conditions were transferred to a 96-well white fluorescence reading plate, adding resazurin at a final concentration of […] with 0.8 mM phenazine. The plate was incubated for 3 hours at 37°C in a humidified atmosphere with 5% CO2, and fluorescence measurements were taken using a microplate reader (Thermo Scientific Varioskan Flash) at excitation wavelengths of 560 nm and emission wavelengths of 590 nm.

[2] = system: T. gondii tachyzoites, RH strain; assay: Resazurin viability assay on free T. gondii tachyzoites; assay type: cell-based, Toxoplasma gondii; conditions: Toxoplasma gondii; tachyzoites RH; 100 µM; 24 h
Description: Untreated parasites served as a negative control.

[3] = Lipophilicity by reversed-phase TLC (RM); conditions: reverse phase-C18, DMSO/phosphate buffer pH 7.4 (70:30 vol/vol), RM = log[(1/Rf) – 1]
Description: Lipophilicity was studied by reversed-phase TLC experiments. Precoated TLC plates SIL RP-18W/UV254 were used and eluted with DMSO/physiological serum (70:30, vol/vol). Stock solutions were prepared in pure DMSO (Aldrich) prior to use. The plates were developed in a closed chromatographic tank, dried, and the spots were located under UV light. The Rf values were averaged from three determinations and converted into RM values via the relationship: RM = log [(1/Rf)−1]

[4] = Cyclic voltammetry, reduction potentials in DMSO (HDME, vs. Ag/AgCl); conditions: 2.00 V/s; for E(pIIa): anodic peak IIa; for E(pIIIc): cathodic peak IIIc, hydroxylamine formation; for E(pIIc): cathodic peak IIc, nitro anion radical couple; for E(pIVc): cathodic peak IVc, imine reduction; for E(pIca): cathodic peak Ica; for E(pIca) / E(pIcb): nitro reduction; for E(pIcb): cathodic peak Icb
Description: Electrochemical studies were carried out on a Metrohm Autolab instrument model PGSTAT204, using dimethyl sulfoxide (DMSO) as the solvent (1 mM solutions), tetrabutylammonium perchlorate (0.1 M TBAP) as the supporting electrolyte, a hanging drop mercury electrode (HDME) as the working electrode, Ag/AgCl (3M KCl) as the reference electrode and a graphite rod as the counter electrode. All measurements were performed after bubbling with nitrogen (N2) for 10 minutes.

T. cruzi = system: T. cruzi; set-up: method as in ref 28 (b), 32, 33 (c, d); conditions: Fig. 2 literature compounds; ref 28 (b), 32, 33 (c, d); cited from earlier work
T. gondii = system: T. gondii; set-up: method as in ref 26 (a), 34 (e), 38 (f); conditions: Fig. 2 literature compounds; ref 26 (a), 34 (e), 38 (f); cited from earlier work

| SMILES | viability at 100 µM [1] [%] | viability at 100 µM [2] [%] | Lipophilicity (RM) [3] | E(pIIa) [4] [V] | E(pIIc) [4] [V] | other results |
| --- | --- | --- | --- | --- | --- | --- |
| CNC(=S)N/N=C(\C)c1cc2cc([N+](=O)[O-])ccc2oc1=O [Compound 6, (E)-N-methyl-2-(1-(6-nitro-2-oxo-2H-chromen-3-yl)ethylidene)hydrazine-1-carbothioamide] | 49.8 ± 5.3 | 55.5 ± 9.6 | −0.41 | −0.87 | −0.93 | E(pIIIc) [4]: −1.40 V; E(pIVc) [4]: −1.68 V |
| C/C(=N\NC(N)=S)c1cc2cc([N+](=O)[O-])ccc2oc1=O [Compound 5, (E)−2-(1-(6-nitro-2-oxo-2H-chromen-3-yl)ethylidene)hydrazine-1-carbothioamide] | 44.6 ± 7.1 | 65.7 ± 14.8 | −0.58 | −0.90 | ~−0.94 | E(pIIIc) [4]: ~−1.38 V; E(pIVc) [4]: ~−1.66 V |
| CCNC(=S)N/N=C(\C)c1c(O)c2cc([N+](=O)[O-])ccc2oc1=O [Compound 3, (E)-N-ethyl-2-(1-(4-hydroxy-6-nitro-2-oxo-2H-chromen-3-yl)ethylidene)hydrazine-1-carbothioamide] | 70.7 ± 9.4 | 49.6 ± 13.5 | 0.33 | −1.00 | −1.08 | E(pIca) [4]: −0.88 V; E(pIcb) [4]: −0.99 V |
| O=C(Cc1c([N+](=O)[O-])c(=O)oc2ccccc12)c1cccnc1 [c] | – | – | – | – | – | IC50 (T. cruzi): 137 µM |
| NC(=S)N/N=C/c1ccc([N+](=O)[O-])o1 [b] | – | – | – | – | – | IC50 (T. cruzi): 9.8 µM |
| C/C(=N\NC(=S)Nc1ccccc1)c1c(O)c2cc([N+](=O)[O-])ccc2oc1=O [Compound 4, (E)−2-(1-(4-hydroxy-6-nitro-2-oxo-2H-chromen-3-yl)ethylidene)-N-phenylhydrazine-1-carbothioamide] | 50.3 ± 5 | 84.4 ± 13.7 | 0.85 | −1.01 | −1.09 | E(pIca) [4]: −0.62 V; E(pIcb) [4]: −1.05 V |
| C/C(=N\N=C1\NC(=O)CS1)c1cc2ccccc2oc1=O [e] | – | – | – | – | – | IC50 (T. gondii): 8 µM |
| COc1ccc(/C(COc2ccc(F)cc2)=N\NC(N)=S)cc1 [a] | – | – | – | – | – | IC50 (T. gondii): 1.09 µM |
| O=C(O)c1cn(C2CC2)c2cc(N3CCN(Cc4ccc([N+](=O)[O-])o4)CC3)c(F)cc2c1=O [f] | – | – | – | – | – | IC50 (T. gondii): 7.9 µM |
| CNC(=S)N/N=C(\C)c1c(O)c2cc([N+](=O)[O-])ccc2oc1=O [Compound 2, (E)−2-(1-(4-hydroxy-6-nitro-2-oxo-2H-chromen-3-yl)ethylidene)-N-methylhydrazine-1-carbothioamide] | 81.5 ± 14.1 | 29.1 ± 13.5 | 0.13 | −1.01 | −1.08 | E(pIca) [4]: −0.89 V; E(pIcb) [4]: −0.99 V |
| O=c1oc2c(O)c(O)ccc2cc1-c1ccccc1O [d] | – | – | – | – | – | IC50 (T. cruzi): 39.7 µM |

— publication PMC12406664, “New derivatives of 6-nitrocoumarin-3-thiosemicarbazone exhibit improved antiparasitic activity in the placenta against Trypanosoma cruzi and Toxoplasma gondii” (Antimicrobial Agents and Chemotherapy, 2025)
